Experiments:
[1] = tested on: CaCC of Xenopus oocytes; parameters: method as in PMID 11279188; conditions: cited from earlier work
[2] = biological target: T1, TMEM16A (ANO1) (Mus musculus, UniProt Q8BHY3); assay: Anion permeability of the ANO1 pore, Erev under bi-ionic conditions; format: cell-based; conditions: for permeability ratio PX/PCl: Ca^2+-activated current, calculated from Erev after junction potential correction; for zero current potential of I–V curve: example ramp −80 to +80 mV, [Ca^2+] = 20 µM, intracellular salt 140 mM (NaHCO3 130 mM + 10 mM NaCl)
T1 construct: We subcloned the coding region of the cDNA into pEGFP-N3 vector; expressed in transfected cells; host or cells: HEK293 cells
T1 sequence (Q8BHY3 1-956 isoform Q8BHY3-2): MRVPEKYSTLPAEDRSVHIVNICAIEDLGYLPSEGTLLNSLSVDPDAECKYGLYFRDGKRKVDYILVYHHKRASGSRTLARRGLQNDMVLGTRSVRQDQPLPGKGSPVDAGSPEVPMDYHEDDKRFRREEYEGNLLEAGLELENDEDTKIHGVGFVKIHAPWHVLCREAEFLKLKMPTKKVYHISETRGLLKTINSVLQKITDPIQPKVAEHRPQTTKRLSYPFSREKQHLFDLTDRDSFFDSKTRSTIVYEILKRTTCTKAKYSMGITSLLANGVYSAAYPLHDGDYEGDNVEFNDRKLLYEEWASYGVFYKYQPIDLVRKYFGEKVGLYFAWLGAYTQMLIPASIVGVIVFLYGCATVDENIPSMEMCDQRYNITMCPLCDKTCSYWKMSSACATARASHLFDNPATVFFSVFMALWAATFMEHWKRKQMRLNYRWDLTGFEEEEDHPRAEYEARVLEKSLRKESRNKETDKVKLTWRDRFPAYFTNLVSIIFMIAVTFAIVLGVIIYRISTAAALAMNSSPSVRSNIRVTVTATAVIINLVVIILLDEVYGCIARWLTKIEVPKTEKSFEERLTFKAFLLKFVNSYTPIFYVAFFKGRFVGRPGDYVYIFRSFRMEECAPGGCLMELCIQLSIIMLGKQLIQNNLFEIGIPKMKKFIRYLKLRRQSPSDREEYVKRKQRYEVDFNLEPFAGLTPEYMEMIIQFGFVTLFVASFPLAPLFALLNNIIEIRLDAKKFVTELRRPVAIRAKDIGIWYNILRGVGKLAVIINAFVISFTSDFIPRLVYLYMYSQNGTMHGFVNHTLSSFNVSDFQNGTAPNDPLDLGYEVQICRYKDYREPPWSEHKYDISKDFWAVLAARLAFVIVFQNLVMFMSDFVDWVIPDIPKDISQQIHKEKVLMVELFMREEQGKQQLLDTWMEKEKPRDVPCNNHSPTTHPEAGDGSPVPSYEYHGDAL
Text: The mouse TMEM16A cDNA (NCBI reference sequence: NM_001242349.1) encoding ANO1 CaCC was a generous gift from Dr. Lily Jan. We subcloned the coding region of the cDNA into pEGFP-N3 vector (Clontech Laboratories, Inc.), resulting in a construct in which an enhanced green fluorescent protein (eGFP) was attached to the C-terminus of the ANO1 protein. The sequence was confirmed by commercially-available DNA sequencing service. This eGFP-attached ANO1 cDNA construct was used for channel expression throughout the study. The cDNA was transfected into human embryonic kidney (HEK) 293 cells using lipofectamine transfection methods, [42], [43]. A fluorescent light source and a GFP filter set (Chroma Technology Co.) in the DM IRB inverted microscope (Leica Microsystems) were used to identify transfected cells expressing channel proteins. Electrophysiological experiments were performed ∼24 to 72 hours after transfection.
The anion permeability of the ANO1 pore was examined under bi-ionic conditions in which the extracellular solution contained 140 mM NaCl (the zero-Ca^2+ solution). The intracellular solution contained 140 mM sodium salts of various anions with the exception of the HCO3 ^− experiment in which the solution contained 130 mM NaHCO3 and 10 mM NaCl. In all intracellular solutions for the bi-ionic experiments, 0.1 mM EGTA and 0.12 mM total Ca^2+ or Sr^2+ were added to the solution to activate the ANO1 channel (Free [Ca^2+] or [Sr^2+] were saturating concentrations). Erev of the open channel was measured in two ways. First, under voltage-clamp configuration, a 3-sec voltage ramp from −80 mV to +80 mV was applied and the Erev of the leak-subtracted I-V curve was then determined (see Fig. 5 A & B). The second method employed the current-clamp (I = 0) mode in which the patch was exposed to divalent cations throughout the recording (Fig. 5 C and Fig. 6 A & C). When the intracellular solution contained the same concentration of Cl^− as that in the extracellular side, the recorded voltage (EI = 0) was normally close to 0 mV. When the intracellular solution was replaced by the one containing other anions, the value of EI = 0 changed to a new value corresponding to the Erev of the new ionic condition. It is important to point out that the measurement of Erev can be imprecise if the amplitude of the ANO1 current is not within a proper range. Therefore, in permeability ratio measurements we only used the data obtained from patches with a maximal current in the range of 100 pA–1000 pA at +40 mV. All the presented Erev values (and the recording traces for measuring Erev) are not corrected for junction potential difference between solutions because the junction potentials are relatively small. However, the reported permeability ratios were calculated based on the junction potential-corrected Erev. The correction for the junction potential results in very small changes in the calculated permeability ratios.
The permeability ratios of various anions versus Cl^− (PX/PCl, where X represents various anions) were calculated using the Erev obtained from bi-ionic experiments according to the following equation (eq. 3), PX/PCl = exp[Erev/(RT/F)], where R, T, and F are the gas constant, absolute temperature, and Faraday constant, respectively. Comparing the difference between Erev’s of the Ca^2+- and Sr^2+-activated current was performed using the pair t test at the significant level of 0.05.

[3] = Ca^2+-activated current (20 µM), 140 mM extracellular NaCl, anion as intracellular sodium salt 140 mM (HCO3: 130 mM NaHCO3 + 10 mM NaCl), without junction potential correction, averaged
[4] = current activated by 20 µM Sr^2+, current clamp (I = 0), without correcting for junction potential

| Erev (bi-ionic potential) [2, 3] [mV] | permeability ratio PX/PCl [2] | Erev (bi-ionic potential) [2, 4] [mV] | zero current potential of I–V curve ([2]; 140 mM extracellular NaCl) | Erev (bi-ionic potential) ([2]; Ca^2+-activated current (20 µM), 140 mM extracellular NaCl, anion as intracellular sodium salt 140 mM (HCO3: 130 mM NaHCO3 + 10 mM NaCl), without junction potential correction, averaged, listed as I^–) | SMILES | sideness of the block [1] | voltage dependence of inhibition [1] |
| --- | --- | --- | --- | --- | --- | --- | --- |
| < −80 |  |  |  |  | N[C@@H](CCC(=O)O)C(=O)[O-].[Na+] [glutamate, Na-glutamate] |  |  |
| −27.6±2.4 | ~0.3 |  | -27 mV |  | O=C([O-])O.[Na+] [HCO3 ^−] |  |  |
| 35.9±3.3 | ~4.1 | 33.4±0.3 | +39 mV | ~+35 mV | [I-].[Na+] [I^−] |  |  |

The next lines start with the compound.

| SMILES | Erev (bi-ionic potential) [2, 3] [mV] | permeability ratio PX/PCl [2] | Erev (bi-ionic potential) [2, 4] [mV] | zero current potential of I–V curve ([2]; 140 mM extracellular NaCl) | Erev (bi-ionic potential) ([2]; Ca^2+-activated current (20 µM), 140 mM extracellular NaCl, anion as intracellular sodium salt 140 mM (HCO3: 130 mM NaHCO3 + 10 mM NaCl), without junction potential correction, averaged, listed as I^–) | sideness of the block [1] | voltage dependence of inhibition [1] |
| --- | --- | --- | --- | --- | --- | --- | --- |
| O=C(O)c1ccccc1Nc1ccccc1 [DPC] |  |  |  |  |  | from the extracellular side | voltage dependent |
| [Br-].[Na+] [Br^−] | 18.0±1.2 | ~2.1 | 16.2±0.4 | +17 mV |  |  |  |
| O=C(O)c1c2ccccc2cc2ccccc12 [A9C] |  |  |  |  |  | from the extracellular side | voltage dependent |

From publication PMC3906059, “Activation and Inhibition of TMEM16A Calcium-Activated Chloride Channels” (PLoS ONE, 2014)
